Reference: the supplement of paper PMC8612539
≈ marks a conversion by molar mass, not a printed value.

Legend:
Pasteurella multocida = experiment: minimum inhibitory concentration (MIC)
Procedure: (§1)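 Broth microdilution MIC (Sensititre BOPO7F bovine plate, CLSI methods) of 19 antimicrobials against field isolates of P. multocida, M. haemolytica, H. somni (deep nasopharyngeal swabs) and E. coli, Enterococcus spp. (rectal swabs) from weaned dairy heifers. Incubation 16-24 h at 35 C. MIC is the lowest concentration preventing visible growth. Values with <= or > lie at the tested range limits. Trimethoprim-sulfamethoxazole is given as the trimethoprim component of a 1:19 mixture.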

Enterococcus spp. = experiment: minimum inhibitory concentration (MIC)
Procedure: as §1

CNC(C)C1CCC(N)C(OC2C(N)CC(N)C(OC3OCC(C)(O)C(NC)C3O)C2O)O1 (configuration not stated) [Gentamicin]
minimum inhibitory concentration [µg/mL]
Details | Enterococcus spp. | Pasteurella multocida
isolate (source animal id): 2 | 8 (≈ 16.8 µM) | –
isolate (source animal id): 35 | 16 (≈ 33.5 µM) | –
isolate (source animal id): 42 | 8 (≈ 16.8 µM) | –
isolate (source animal id): 44 | 16 (≈ 33.5 µM) | –
isolate (source animal id): 79 | 16 (≈ 33.5 µM) | –
isolate (source animal id): 88 | 4 (≈ 8.38 µM) | –
isolate (source animal id): 91 | 4 (≈ 8.38 µM) | –
isolate (source animal id): 92 | 2 (≈ 4.19 µM) | –
isolate (source animal id): 111 | 4 (≈ 8.38 µM) | –
isolate (source animal id): 122 | 16 (≈ 33.5 µM) | –
isolate (source animal id): 123 | 8 (≈ 16.8 µM) | –
isolate (source animal id): 133 | 16 (≈ 33.5 µM) | –
isolate (source animal id): 158 | 16 (≈ 33.5 µM) | –
isolate (source animal id): 168 | 8 (≈ 16.8 µM) | –
isolate (source animal id): 169 | 8 (≈ 16.8 µM) | –
isolate (source animal id): 171 | 4 (≈ 8.38 µM) | –
isolate (source animal id): 175 | 8 (≈ 16.8 µM) | –
isolate (source animal id): 177 | 8 (≈ 16.8 µM) | –
isolate (source animal id): 181 | 8 (≈ 16.8 µM) | –
isolate (source animal id): 182 | 8 (≈ 16.8 µM) | –
isolate (source animal id): 183 | 8 (≈ 16.8 µM) | –
isolate (source animal id): 187 | 8 (≈ 16.8 µM) | –
isolate (source animal id): 190 | 8 (≈ 16.8 µM) | –
isolate (source animal id): 194 | 4 (≈ 8.38 µM) | –
isolate (source animal id): 195 | 8 (≈ 16.8 µM) | –
isolate (source animal id): 197 | 8 (≈ 16.8 µM) | –
isolate (source animal id): 211 | 8 (≈ 16.8 µM) | –
isolate (source animal id): 214 | 16 (≈ 33.5 µM) | –
isolate (source animal id): 222 | 8 (≈ 16.8 µM) | –
isolate (source animal id): 223 | 8 (≈ 16.8 µM) | –
isolate (source animal id): 228 | 8 (≈ 16.8 µM) | –
isolate (source animal id): 230 | 8 (≈ 16.8 µM) | –
isolate (source animal id): 235 | 4 (≈ 8.38 µM) | –
isolate (source animal id): 236 | 4 (≈ 8.38 µM) | –
isolate (source animal id): 239 | 4 (≈ 8.38 µM) | –
isolate (source animal id): 241 | 4 (≈ 8.38 µM) | –
isolate (source animal id): 244 | 4 (≈ 8.38 µM) | –
isolate (source animal id): 246 | 8 (≈ 16.8 µM) | –
isolate (source animal id): 247 | 4 (≈ 8.38 µM) | –
isolate (source animal id): 250 | 8 (≈ 16.8 µM) | –
isolate (source animal id): 252 | 8 (≈ 16.8 µM) | –
isolate (source animal id): 268 | 4 (≈ 8.38 µM) | –
isolate (source animal id): 269 | – | 4 (≈ 8.38 µM)
isolate (source animal id): 270 | – | 4 (≈ 8.38 µM)
isolate (source animal id): 274 | – | 4 (≈ 8.38 µM)
isolate (source animal id): 275 | – | 4 (≈ 8.38 µM)
isolate (source animal id): 276 | – | 4 (≈ 8.38 µM)
isolate (source animal id): 277 | – | 4 (≈ 8.38 µM)
isolate (source animal id): 278 | – | 4 (≈ 8.38 µM)
isolate (source animal id): 279 | – | 4 (≈ 8.38 µM)
isolate (source animal id): 280 | – | 4 (≈ 8.38 µM)
isolate (source animal id): 282 | 8 (≈ 16.8 µM) | –
isolate (source animal id): 284 | – | 8 (≈ 16.8 µM)
isolate (source animal id): 285 | 16 (≈ 33.5 µM) | 2 (≈ 4.19 µM)
isolate (source animal id): 287 | – | 2 (≈ 4.19 µM)
isolate (source animal id): 289 | 4 (≈ 8.38 µM) | –
isolate (source animal id): 290 | 4 (≈ 8.38 µM) | 4 (≈ 8.38 µM)
isolate (source animal id): 294 | – | 4 (≈ 8.38 µM)
isolate (source animal id): 295 | – | 2 (≈ 4.19 µM)
isolate (source animal id): 296 | 8 (≈ 16.8 µM) | 2 (≈ 4.19 µM)
isolate (source animal id): 298 | 4 (≈ 8.38 µM) | –
isolate (source animal id): 301 | 4 (≈ 8.38 µM) | –
isolate (source animal id): 307 | – | 4 (≈ 8.38 µM)
isolate (source animal id): 310 | 4 (≈ 8.38 µM) | 4 (≈ 8.38 µM)
isolate (source animal id): 311 | – | 4 (≈ 8.38 µM)
isolate (source animal id): 312 | – | ≤ 1
isolate (source animal id): 313 | – | 2 (≈ 4.19 µM)
isolate (source animal id): 315 | – | 4 (≈ 8.38 µM)
isolate (source animal id): 316 | – | 4 (≈ 8.38 µM)
isolate (source animal id): 320 | 8 (≈ 16.8 µM) | –
isolate (source animal id): 331 | 8 (≈ 16.8 µM) | –
isolate (source animal id): 333 | 4 (≈ 8.38 µM) | –
isolate (source animal id): 341 | 16 (≈ 33.5 µM) | –
